By kcat is commonly meant the maximal rate divided by the concentration of active sites. Broadly, the Km is the concentration of substrate that gives half-maximal velocity.

Like-named read-outs stand apart in the source and are kept apart here. Peptide text beside a SMILES is read from it.

Consider 10 compounds from patent US7846719B2, “Express system of soluble glutaminyl cyclase” (Academia Sinica, priority 2006, dated 2010).

The target of data set [1] is T1, Human QC (Homo sapiens, UniProt Q16769). Briefly: QC inhibition test, spectrophotometric, 96-well microplate. Further details: corresponding to the coding region of human QC (Ala33-Leu361) was re-amplified and inserted into a pET-43.1a expression vector; Nus fusion (pET-43.1a construct) or thioredoxin fusion (pET-32a construct) (N, cleaved yes); (His)6 (pET-43.1a construct: N- and C-terminal sites; pET-32a construct: 5'-end, upstream of the Factor Xa site); made in house; host or cells: E. coli BL21 (DE3). The note with it: inhibitor 140 μM, substrate H-Gln-Gln-OH 0.55 mM, human QC 28.8 nM, preincubation 5 to 10 min; for remaining activity at 140 µM: read-out: QC activity (% of control). It is filed as biochemical. The procedure:
Reactions were started by the addition of QC (0.04 to 2.5 μg), and the activity was monitored by recording the decrease of NADH absorbance at 340 nm.
For an inhibition test, the reaction composition was the same as described above, except for the addition of the inhibitor compound. Prior to the spectrophotometric analysis on a 96-well microplate, the enzyme was incubated with the inhibitor for 5 to 10 min.
Target sequence in this assay (Q16769 33-361): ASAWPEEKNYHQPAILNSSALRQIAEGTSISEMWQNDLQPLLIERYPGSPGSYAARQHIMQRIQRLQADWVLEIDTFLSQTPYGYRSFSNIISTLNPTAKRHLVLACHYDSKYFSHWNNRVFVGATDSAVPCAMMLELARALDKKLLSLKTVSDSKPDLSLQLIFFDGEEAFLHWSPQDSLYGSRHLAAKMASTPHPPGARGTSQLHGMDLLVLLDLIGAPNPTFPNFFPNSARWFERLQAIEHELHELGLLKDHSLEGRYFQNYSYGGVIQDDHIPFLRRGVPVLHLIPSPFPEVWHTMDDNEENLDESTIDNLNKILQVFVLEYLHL

Data set [2] deals with T1, Human QC. The data set can be described thus: Spectrophotometric QC activity assay (glutamate dehydrogenase coupled), human QC expressed in E. coli. It is filed as biochemical. More on the design: corresponding to the coding region of human QC (Ala33-Leu361) was re-amplified and inserted into a pET-43.1a expression vector; Nus fusion (pET-43.1a construct) or thioredoxin fusion (pET-32a construct) (N, cleaved yes); (His)6 (pET-43.1a construct: N- and C-terminal sites; pET-32a construct: 5'-end, upstream of the Factor Xa site); made in house; host or cells: E. coli BL21 (DE3). The note with it: substrate of human QC expressed in Escherichia coli cell, mean ± SD (n = 2). How it is done:
For the spectrophotometric method, the 500 μl assay solutions consisted of 15 units glutamate dehydrogenase, 12 mM α-ketoglutarate, 0.6 mM NADH (a reduced form of NAD (nicotinamide adenine dinucleotide)) and varying concentrations of synthetic substrate in 50 mM Tris-HCl, pH 8.0. Reactions were started by the addition of QC (0.04 to 2.5 μg), and the activity was monitored by recording the decrease of NADH absorbance at 340 nm.
The Km and kcat values determined for the recombinant protein of the invention were very similar to the human QC expressed in Drosophila S2 cells, as evident in Table 1.
Target sequence in this assay (Q16769 33-361): as above

Data set [3] addresses T1, Human QC. More on the design: host or cells: Pichia pastoris. The note with it: substrate of human QC expressed in Pichia pastoris cell; reported by Schilling et al.; cited from earlier work.
Target sequence in this assay (Q16769 29-361): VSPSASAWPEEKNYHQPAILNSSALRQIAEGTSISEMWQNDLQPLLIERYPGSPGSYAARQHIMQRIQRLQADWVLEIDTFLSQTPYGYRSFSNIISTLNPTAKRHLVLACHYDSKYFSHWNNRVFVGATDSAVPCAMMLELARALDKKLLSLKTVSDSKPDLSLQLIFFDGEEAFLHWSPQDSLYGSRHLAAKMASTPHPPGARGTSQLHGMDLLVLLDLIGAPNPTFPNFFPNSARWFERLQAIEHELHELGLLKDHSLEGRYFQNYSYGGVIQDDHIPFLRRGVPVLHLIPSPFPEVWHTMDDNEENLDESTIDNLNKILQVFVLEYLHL
For data set [4], the target named is T1, Human QC. More on the design: host or cells: Pichia pastoris. The note with it: substrate of human QC expressed in Drosophila S2 cell; reported by Booth et al.; cited from earlier work.
Target sequence in this assay (Q16769 29-361): as above
The target in data set [5] is T1, Human QC. The data set can be described thus: QC activity analysis by reverse-phase HPLC on [Gln1]-TRH. Conditions: 50 mM Tris-HCl. It is filed as biochemical. Further details: corresponding to the coding region of human QC (Ala33-Leu361) was re-amplified and inserted into a pET-43.1a expression vector; Nus fusion (pET-43.1a construct) or thioredoxin fusion (pET-32a construct) (N, cleaved yes); (His)6 (pET-43.1a construct: N- and C-terminal sites; pET-32a construct: 5'-end, upstream of the Factor Xa site); made in house; host or cells: E. coli BL21 (DE3). The procedure:
QC activity was analyzed based on reverse-phase HPLC and spectrophotometric measurement. […] A reaction without addition of human QC was provided as a control in the assay. Subsequently, a 20 μl aliquot of the mixture was subjected to HPLC analysis on a Waters liquid chromatograph using a C18 column (Waters, Milford, Mass.). The bound materials were eluted by a three-step linear gradient of methanol containing 0.1% trifluoroacetic acid (TFA). The eluates were detected at 214 nm and identified by mass spectrometry and N-terminal sequencing.
The synthetic [Gln^1]-TRH (Gln-His-Pro), one of the putative physiological substrates of human QC, was used to analyze the QC activity of the recombinant protein based on the HPLC elution profile of the peptide.
Target sequence in this assay (Q16769 33-361): as the sequence (Q16769 33-361) above

On to `Nc1n[nH]c(N)n1` [3,5-diamino-1,2,4-triazole], for which the remaining activity at 140 µM on Human QC [1] is 89.9%. The same measure, in the same setting: for `CCOC(=O)Cc1nnn[nH]1` [ethyl 1H-tetrazole-5-acetate] the value was 90.6%. For the compound `c1ccc(N=c2[n-][n+](-c3ccccc3)cn2-c2ccccc2)cc1` [nitron], the “QC activity (% of control)” value at Human QC [1] is on record as 61.4 % of control. On to `CC(C)(C)OC(=O)[C@@H](N)CCC(N)=O` [Gln-t-butyl ester, H-Gln-t-butyl ester], for which the catalytic constant (kcat) is 20.9 ± 2.1 s⁻¹ on Human QC [2], 6.7 ± 0.2 s⁻¹ on Human QC [3] and 16.0 s⁻¹ at Human QC [4]. In addition, the Michaelis-Menten constant (Km) was 4100 ± 600 µM on Human QC [2] (50 mM Tris-HCl, pH 8.0); 1200 ± 100 µM on Human QC [3]; 6700 ± 2000 µM at Human QC [4]. In the case of `NC(=O)CC[C@H](NC(=O)[C@@H](N)CCC(N)=O)C(=O)O` [Gln-Gln, H-Gln-Gln-OH] (H-Gln-Gln-OH), at Human QC [3], the Km was 100 µM and the turnover number (kcat) is 20.7 ± 0.2 s⁻¹. Moreover, on Human QC [4], the Km was 700 ± 400 µM and the kcat is 10.0 s⁻¹.

For the compound [Gln^1]-TRH (Gln-His-Pro), the “Turnover in the absence of human QC” value at Human QC [5] (5 days, pH 8.0, at 25° C., no enzyme) is “less than 20%”. On Human QC [5] (within 20 minutes, 0.6 μM human QC, 14.8 mM substrate, pH 8.0, 25° C.), the “Conversion into [pGlu1]-TRH by human QC” value is given as “almost completely converted”. As for `CSc1nnn[nH]1` [5-(methylthio)-1H-tetrazole], the remaining activity at 140 µM at Human QC [1] is 89.1%.

For `c1ccc(Cn2ccnc2)cc1` [1-benzylimidazole], the remaining activity at 140 µM at Human QC [1] amounted to 41.5%.

On to `Nc1nc[nH]n1` [3-amino-1,2,4-triazole], for which, at Human QC [1], the remaining activity at 140 µM came out at 84.5%. The same measure, in the same setting: for `O=c1[nH][nH]c(=O)n1-c1ccccc1` [4-phenyl-1,2,4-triazoleine-3,5-dione] the value was 78.2%.
